{"source": "patent US20240116985A1", "about": "“STAPLED PEPTIDES AND METHODS THEREOF” (priority 2020, published 2024)", "assay": "CHI Log D procedure", "assay_type": "physicochemical", "details": "for CHI Log D: pH 7.4; for chromatographic logD: pH 7.4, CHI Log D", "data": [{"molecule": "CC(=O)N[C@@H](Cc1ccccc1)C(=O)N[C@@H](CC(=O)O)C(=O)N[C@@H](C)C(=O)N[C@]1(C)CCCCCCC=CCOC(=O)N2CC[C@@](C(=O)N[C@@H](Cc3ccccc3)C(=O)N[C@@H](Cc3c[nH]c4ccccc34)C(=O)N[C@@H](CCC(N)=O)C(N)=O)(C2)NC(=O)[C@H](C(C)C)NC(=O)[C@H](Cc2ccccc2)NC(=O)[C@H](C)NC(=O)[C@H](C)NC(=O)[C@H](Cc2ccccc2)NC(=O)[C@H](CC(=O)O)NC1=O", "note": "[I-100, Ac-Phe-Asp-Ala-R8-Asp-Phe-Ala-Ala-Phe-Val-PyrS-Phe-Trp-Gln-NH2]", "values": [{"measurement": "CHI Log D", "result": 1.993}]}, {"molecule": "CC(=O)N[C@@H](Cc1ccccc1)C(=O)N[C@@H](CC(=O)O)C(=O)N[C@@H](C)C(=O)N[C@]1(C)CCCCCCC=CCOC(=O)N2CC[C@@](C(=O)N[C@@H](Cc3cccc(C(N)=O)c3)C(=O)N[C@@H](Cc3c[nH]c4ccccc34)C(=O)N[C@@H](CCC(N)=O)C(N)=O)(C2)NC(=O)[C@H](C(C)C)NC(=O)[C@H](Cc2ccccc2)NC(=O)[C@H](C)NC(=O)[C@H](C)NC(=O)[C@H](CC(=O)O)NC(=O)[C@H](CC(=O)O)NC1=O", "note": "[I-107, Ac-Phe-Asp-Ala-R8-Asp-Asp-Ala-Ala-Phe-Val-PyrS-3CBMF-Trp-Gln-NH2]", "values": [{"measurement": "chromatographic logD", "result": 1}]}, {"molecule": "CC(=O)N[C@@H](Cc1ccccc1)C(=O)N[C@@H](CC(=O)O)C(=O)N[C@@H](C)C(=O)N[C@]1(C)CCCCCCC=CCOC(=O)N2CC[C@@](C(=O)N[C@@H](Cc3ccccc3)C(=O)N[C@@H](Cc3c[nH]c4ccccc34)C(=O)N[C@@H](CCC(N)=O)C(N)=O)(C2)NC(=O)[C@H](C(C)C)NC(=O)[C@H](Cc2ccccc2)NC(=O)[C@H](C)NC(=O)[C@H](C)NC(=O)[C@H](Cc2cccc3ccccc23)NC(=O)[C@H](CC(=O)O)NC1=O", "note": "[I-114, Ac-Phe-Asp-Ala-R8-Asp-1NapA-Ala-Ala-Phe-Val-PyrS-Phe-Trp-Gln-NH2]", "values": [{"measurement": "chromatographic logD", "result": 2.11}]}, {"molecule": "CC(=O)N[C@@H](Cc1ccccc1)C(=O)N[C@@H](CC(=O)O)C(=O)N[C@@H](C)C(=O)N[C@]1(C)CCCCCCC=CCOC(=O)N2CC[C@@](C(=O)N[C@@H](Cc3ccccc3)C(=O)N[C@@H](Cc3c[nH]c4ccccc34)C(=O)N[C@@H](CCC(N)=O)C(N)=O)(C2)NC(=O)[C@H](C(C)C)NC(=O)[C@H](Cc2ccccc2)NC(=O)[C@H](C)NC(=O)[C@H](C)NC(=O)[C@H](Cc2ccc3ccccc3c2)NC(=O)[C@H](CC(=O)O)NC1=O", "note": "[I-115, Ac-Phe-Asp-Ala-R8-Asp-2NapA-Ala-Ala-Phe-Val-PyrS-Phe-Trp-Gln-NH2]", "values": [{"measurement": "CHI Log D", "result": 2.145}]}, {"molecule": "CC(=O)N[C@@H](Cc1ccccc1)C(=O)N[C@@H](CC(=O)O)C(=O)N[C@@H](C)C(=O)N[C@]1(C)CCCCCCC=CCOC(=O)N2CC[C@@](C(=O)N[C@@H](Cc3ccccc3)C(=O)N[C@@H](Cc3c[nH]c4ccccc34)C(=O)N[C@@H](CCC(N)=O)C(N)=O)(C2)NC(=O)[C@H](C(C)C)NC(=O)[C@H](CCc2ccccc2)NC(=O)[C@H](C)NC(=O)[C@H](C)NC(=O)[C@H](CC(=O)O)NC(=O)[C@H](CC(=O)O)NC1=O", "note": "[I-118, Ac-Phe-Asp-Ala-R8-Asp-Asp-Ala-Ala-hPhe-Val-PyrS-Phe-Trp-Gln-NH2]", "values": [{"measurement": "CHI Log D", "result": 1.545}]}, {"molecule": "CC(=O)N[C@@H](Cc1ccccc1)C(=O)N[C@@H](CC(=O)O)C(=O)N[C@@H](C)C(=O)N[C@]1(C)CCCCCCC=CCOC(=O)N2CC[C@@](C(=O)N[C@@H](Cc3ccccc3)C(=O)N[C@@H](Cc3c[nH]c4ccccc34)C(=O)N[C@@H](CCC(N)=O)C(N)=O)(C2)NC(=O)[C@H](C(C)C)NC(=O)[C@H](CCc2ccc(O)cc2)NC(=O)[C@H](C)NC(=O)[C@H](C)NC(=O)[C@H](CC(=O)O)NC(=O)[C@H](CC(=O)O)NC1=O", "note": "[I-120, Ac-Phe-Asp-Ala-R8-Asp-Asp-Ala-Ala-hTyr-Val-PyrS-Phe-Trp-Gln-NH2]", "values": [{"measurement": "CHI Log D", "result": 1.243}]}, {"molecule": "CC(=O)N[C@@H](Cc1ccccc1)C(=O)N[C@@H](CC(=O)O)C(=O)N[C@@H](C)C(=O)N[C@]1(C)CCCCCCC=CCOC(=O)N2CC[C@@](C(=O)N[C@@H](CC(=O)O)C(=O)N[C@@H](Cc3c[nH]c4ccccc34)C(=O)N[C@@H](CCC(N)=O)C(N)=O)(C2)NC(=O)[C@H](C(C)C)NC(=O)[C@H](Cc2ccccc2)NC(=O)[C@H](C)NC(=O)[C@H](C)NC(=O)[C@H](CC(=O)O)NC(=O)[C@H](CC(=O)O)NC1=O", "note": "[I-121, Ac-Phe-Asp-Ala-R8-Asp-Asp-Ala-Ala-Phe-Val-PyrS-Asp-Trp-Gln-NH2]", "values": [{"measurement": "CHI Log D", "result": 0.825}]}, {"molecule": "CC(=O)N1CCC[C@]12CC=CCCCC1(CCCC=CCCCCCC[C@@](C)(C(=O)N[C@@H](Cc3ccccc3)C(=O)N[C@@H](Cc3c[nH]c4ccccc34)C(N)=O)NC(=O)[C@H](C(C)C)NC(=O)[C@H](Cc3ccccc3)NC(=O)[C@H](C)NC(=O)[C@H](C)NC(=O)[C@H](CCC(=O)O)NC(=O)[C@H](CC(=O)O)NC1=O)NC(=O)[C@H](C)NC(=O)[C@H](CC(=O)O)NC2=O", "note": "(stereo partly drawn) [I-128, Ac-PL3-Asp-Ala-B5-Asp-Glu-Ala-Ala-Phe-Val-S8-Phe-Trp-NH2]", "values": [{"measurement": "chromatographic logD", "result": 2.22}]}, {"molecule": "CC(=O)N1CCC[C@]12CC=CCCCC1(CCCC=CCCCCCC[C@@](C)(C(=O)N[C@@H](Cc3ccccc3)C(=O)N[C@@](C)(Cc3c[nH]c4ccccc34)C(=O)N[C@@H](CCC(N)=O)C(N)=O)NC(=O)[C@H](C(C)C)NC(=O)[C@H](Cc3ccccc3)NC(=O)[C@H](C)NC(=O)[C@H](C)NC(=O)[C@H](CCC(=O)O)NC(=O)[C@H](CC(=O)O)NC1=O)NC(=O)[C@H](C)NC(=O)[C@H](CC(=O)O)NC2=O", "note": "(stereo partly drawn) [I-137, Ac-PL3-Asp-Ala-B5-Asp-Glu-Ala-Ala-Phe-Val-S8-Phe-aMeW-Gln-NH2]", "values": [{"measurement": "CHI Log D", "result": 2.174}]}, {"molecule": "CC(=O)N1CCC[C@]12CC=CCCCC1(CCCC=CCCCCCC[C@@](C)(C(=O)N[C@@H](Cc3ccccc3)C(=O)NC(Cc3cccc4cc(F)ccc34)C(=O)N[C@@H](CCC(N)=O)C(N)=O)NC(=O)[C@H](C(C)C)NC(=O)[C@H](Cc3ccccc3)NC(=O)[C@H](C)NC(=O)[C@H](C)NC(=O)[C@H](CCC(=O)O)NC(=O)[C@H](CC(=O)O)NC1=O)NC(=O)[C@H](C)NC(=O)[C@H](CC(=O)O)NC2=O", "note": "(stereo partly drawn) [I-142, Ac-PL3-Asp-Ala-B5-Asp-Glu-Ala-Ala-Phe-Val-S8-Phe-6F1NapA-Gln-NH2]", "values": [{"measurement": "chromatographic logD", "result": 2.18}]}, {"molecule": "CC(=O)N1CCC[C@]12CC=CCCCC1(CCCC=CCCCCCC[C@@](C)(C(=O)N[C@@H](Cc3ccccc3)C(=O)N[C@@H](Cc3ccc(-c4ccccc4)cc3)C(=O)N[C@@H](CCC(N)=O)C(N)=O)NC(=O)[C@H](C(C)C)NC(=O)[C@H](Cc3ccccc3)NC(=O)[C@H](C)NC(=O)[C@H](C)NC(=O)[C@H](CCC(=O)O)NC(=O)[C@H](CC(=O)O)NC1=O)NC(=O)[C@H](C)NC(=O)[C@H](CC(=O)O)NC2=O", "note": "(stereo partly drawn) [I-145, Ac-PL3-Asp-Ala-B5-Asp-Glu-Ala-Ala-Phe-Val-S8-Phe-Bip-Gln-NH2]", "values": [{"measurement": "chromatographic logD", "result": 2.28}]}, {"molecule": "CC[C@H](C)[C@H](NC(=O)[C@H](CC(=O)O)NC(C)=O)C(=O)N[C@]1(C)CCN(C)C(=O)OCC=CCCCCC[C@@](C)(C(=O)N[C@@H](Cc2ccccc2)C(=O)N[C@@H](Cc2c[nH]c3ccccc23)C(=O)N[C@@H](Cc2c[nH]cn2)C(N)=O)NC(=O)[C@H](CCC(N)=O)NC(=O)[C@H](Cc2ccccc2)NC(=O)[C@H](C)NC(=O)[C@H](C)NC(=O)[C@H](CC(=O)O)NC(=O)[C@H](CC(=O)O)NC1=O", "note": "[I-149, Ac-Asp-Ile-RdN-Asp-Asp-Ala-Ala-Phe-Gln-S7-Phe-Trp-His-NH2]", "values": [{"measurement": "CHI Log D", "result": 1.27}]}, {"molecule": "CC[C@H](C)[C@H](NC(=O)[C@H](CC(=O)O)NC(=O)[C@H](C)NC(C)=O)C(=O)N[C@]1(C)CCN(C)C(=O)OCC=CCCCCC[C@@](C)(C(=O)N[C@@H](Cc2ccccc2)C(=O)N[C@@H](Cc2c[nH]c3ccccc23)C(=O)N[C@@H](C)C(N)=O)NC(=O)[C@H](C)NC(=O)[C@H](Cc2ccccc2)NC(=O)[C@H](C)NC(=O)[C@H](C)NC(=O)[C@H](CCC(=O)O)NC(=O)[C@H](CC(=O)O)NC1=O", "note": "[I-154, Ac-Ala-Asp-Ile-RdN-Asp-Glu-Ala-Ala-Phe-Ala-S7-Phe-Trp-Ala-NH2]", "values": [{"measurement": "CHI Log D", "result": 1.426}]}, {"molecule": "CC(=O)NC(C)(C)C(=O)N[C@@H](CC(=O)O)C(=O)N[C@@H](C)C(=O)N[C@]1(C)CCCCCCC=CCOC(=O)N2CC[C@@](C(=O)N[C@@H](Cc3ccccc3)C(=O)N[C@@H](Cc3c[nH]c4ccccc34)C(=O)N[C@@H](CCC(N)=O)C(N)=O)(C2)NC(=O)[C@H](C(C)C)NC(=O)[C@H](Cc2ccccc2)NC(=O)[C@H](C)NC(=O)[C@H](C)NC(=O)[C@H](CCC(=O)O)NC(=O)[C@H](CC(=O)O)NC1=O", "note": "[I-157, Ac-Aib-Asp-Ala-R8-Asp-Glu-Ala-Ala-Phe-Val-PyrS-Phe-Trp-Gln-NH2]", "values": [{"measurement": "CHI Log D", "result": 1.202}]}, {"molecule": "CC(=O)NC(C)(C)C(=O)N[C@@H](CC(=O)O)C(=O)N[C@@H](C)C(=O)N[C@]1(C)CCCCCCC=CCOC(=O)N2CC[C@@](C(=O)N[C@@H](Cc3ccccc3)C(=O)N[C@@H](Cc3c[nH]c4ccccc34)C(=O)NC(C)(C)C(N)=O)(C2)NC(=O)[C@H](C(C)C)NC(=O)[C@H](Cc2ccccc2)NC(=O)[C@H](C)NC(=O)[C@H](C)NC(=O)[C@H](CCC(=O)O)NC(=O)[C@H](CC(=O)O)NC1=O", "note": "[I-159, Ac-Aib-Asp-Ala-R8-Asp-Glu-Ala-Ala-Phe-Val-PyrS-Phe-Trp-Aib-NH2]", "values": [{"measurement": "CHI Log D", "result": 1.452}]}, {"molecule": "CC(=O)N[C@@H](Cc1ccccc1)C(=O)N[C@@H](CC(=O)O)C(=O)N[C@@H](C)C(=O)N[C@]1(C)CCCCCCC=CCOC(=O)N2CC[C@@](C(=O)N[C@@H](Cc3ccccc3)C(=O)N[C@@H](Cc3c[nH]c4ccccc34)C(=O)N[C@@H](CCC(N)=O)C(N)=O)(C2)NC(=O)[C@H](CO)NC(=O)[C@H](Cc2ccccc2)NC(=O)[C@H](C)NC(=O)[C@H](C)NC(=O)[C@H](CC(=O)O)NC(=O)[C@H](CC(=O)O)NC1=O", "note": "[I-163, Ac-Phe-Asp-Ala-R8-Asp-Asp-Ala-Ala-Phe-Ser-PyrS-Phe-Trp-Gln-NH2]", "values": [{"measurement": "CHI Log D", "result": 1.29}]}, {"molecule": "CC(=O)N[C@@H](Cc1ccccc1)C(=O)N[C@@H](CC(=O)O)C(=O)N[C@@H](C)C(=O)N[C@]1(C)CCCCCCC=CCOC(=O)N2CC[C@@](C(=O)N[C@@H](Cc3ccccc3)C(=O)N[C@@H](Cc3c[nH]c4ccccc34)C(=O)N[C@@H](CCC(N)=O)C(N)=O)(C2)NC(=O)[C@H](CO)NC(=O)[C@H](Cc2ccccc2)NC(=O)[C@H](C)NC(=O)[C@H](C)NC(=O)[C@H](CC(=O)O)NC(=O)[C@H](CC(=O)O)NC1=O", "note": "[I-164, Ac-Phe-Asp-Ala-R8-Asp-Asp-Ala-Ala-Phe-Ser-PyrS-Phe-Trp-Gln-NH2]", "values": [{"measurement": "CHI Log D", "result": 1.359}]}]}
